Where two headings read alike, the source gives them in different places.
Legend:
[1] = tested on: HCT116 MTAP null cells; assay: HCT116 MTAP null cell line proliferation (CellTiter-Glo cell viability, 6 days); format: cell-based; details: HCT116 MTAP null cells, 6 days of treatment, CellTiter-Glo cell viability, read-out: HCT-116 MTAP null IC50
In short: (§1)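 Isogenic HCT116 pair (parent and MTAP double-allele knockout) in RPMI 1640 + 10% FBS, exposed 6 days to compound: 8–9-point 1:3 dilutions from 1 or 10 μM top, or 22-point 1:2 dilutions from 10 or 50 μM top. CellTiter-Glo luminescence; IC50 from sigmoidal fit (Hill −1) or 4-parameter logistic.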

[2] = tested on: HCT116 WT cells; assay: HCT116 WT cell line proliferation (CellTiter-Glo cell viability, 6 days); format: cell-based; details: HCT116 WT (parent) cells, 6 days of treatment, CellTiter-Glo cell viability, read-out: HCT-116 WT IC50
In short: as §1

`Cn1ncc2c(N)nc3cc(F)c(C(=O)N4CCOC[C@@H]4c4ccc(OC(F)F)nn4)cc3c21` [Example 556, (4-amino-7-fluoro-1-methyl-1H-pyrazolo[4,3-c]quinolin-8-yl)((3S)-3-(6-(difluoromethoxy)-3-pyridazinyl)-4-morpholinyl)methanone] was tested, and the IC50 ([1]; HCT116-MTAP null, 144 h) was 0.039 µM and the IC50 ([2]; Homo sapiens, HCT-116, 144 h) was 3.58 µM.
`C[C@H]1OCc2c1c(N)nc1cnc(C(=O)N3CCOC[C@@H]3c3ccc(OC(F)(F)F)cc3)cc21` (single isomer, unassigned) [Example 619] gave an IC50 ([1]; HCT116-MTAP null, 144 h) of 0.049 µM and an IC50 ([2]; Homo sapiens, HCT-116, 144 h) of 1.98 µM.
In the case of `Nc1nc2ccc(C(=O)N3CCOCC3c3ccc(F)c(C(F)(F)F)c3)cc2c2c1COC2` (racemic) [Example 348, (4-amino-1,3-dihydrofuro[3,4-c]quinolin-8-yl)((3R)-3-(4-fluoro-3-(trifluoromethyl)phenyl)-4-morpholinyl)methanone and (4-amino-1,3-dihydrofuro[3,4-c]quinolin-8-yl)((3S)-3-(4-fluoro-3-(trifluoromethyl)phenyl)-4-morpholinyl)methanone], the IC50 ([1]; HCT116-MTAP null, 144 h) is reported as 0.784 µM and the IC50 ([2]; Homo sapiens, HCT-116, 144 h) is reported as 13 µM.
`C[C@H]1OCc2c1c(N)nc1ccc(C(=O)N3C[C@H](c4ccccc4)[C@H]4CCC[C@@H]43)cc21` [Example 401, ((3R)-4-amino-3-methyl-1,3-dihydrofuro[3,4-c]quinolin-8-yl)((3S,3aR,6aS)-3-phenylhexahydrocyclopenta[b]pyrrol-1(2H)-yl)methanone] was tested, and the IC50 ([1]; HCT116-MTAP null, 144 h) was 0.677 µM and the IC50 ([2]; Homo sapiens, HCT-116, 144 h) was 17.6 µM.
For `Cn1ncc2c(N)nc3cc(F)c(C(=O)N4CC[C@H](Cc5ccc(C(F)(F)F)cc5)C4)cc3c21` (single isomer, unassigned) [Example 470], the IC50 ([1]; HCT116-MTAP null, 144 h) was 0.34 µM and the IC50 ([2]; Homo sapiens, HCT-116, 144 h) was 5.3 µM.
With `Nc1nc2ccc(C(=O)N3CCOC[C@@H]3c3ccc(Br)cn3)cc2c2c1COC2` (single isomer, unassigned) [Example 573] the IC50 ([1]; HCT116-MTAP null, 144 h) was 0.241 µM and the IC50 ([2]; Homo sapiens, HCT-116, 144 h) was > 10 µM.
Molecule “(4-amino-7-fluoro-1,3- dihydrofuro[3,4-c]quinolin-8- yl)((3R)-3-hydroxy-3-(4- (trifluoromethyl)phenyl)-1- pyrrolidinyl)methanone and (4-amino-7-fluoro-1,3- dihydrofuro[3,4-c]quinolin-8- yl)((3S)-3-hydroxy-3-(4- (trifluoromethyl)phenyl)-1- pyrrolidinyl)methanone [Example 441]” has an IC50 [1] of 0.683 µM and an IC50 [2] of 15.6 µM.
`C[C@H]1COC[C@@H](c2ccc(C(F)(F)F)nc2)N1C(=O)c1ccc2nc(N)c3c(c2c1)COC3` (racemic) [Example 303, (4-amino-1,3-dihydrofuro[3,4-c]quinolin-8-yl)((3R,5S)-3-methyl-5-(6-(trifluoromethyl)-3-pyridinyl)-4-morpholinyl)methanone and (4-amino-1,3-dihydrofuro[3,4-c]quinolin-8-yl)((3S,5R)-3-methyl-5-(6-(trifluoromethyl)-3-pyridinyl)-4-morpholinyl)methanone] was tested, and the IC50 ([1]; HCT116-MTAP null, 144 h) was 0.134 µM and the IC50 ([2]; Homo sapiens, HCT-116, 144 h) was 2.86 µM.
`C[C@H]1OCc2c1c(N)nc1ccc(C(=O)N3CCOC[C@@H]3c3ccc(C(F)(F)C(F)(F)F)cc3)cc21` [Example 336, ((3R)-4-amino-3-methyl-1,3-dihydrofuro[3,4-c]quinolin-8-yl)((3S)-3-(4-(pentafluoroethyl)phenyl)-4-morpholinyl)methanone] showed an IC50 ([1]; HCT116-MTAP null, 144 h) of 0.039 µM and an IC50 ([2]; Homo sapiens, HCT-116, 144 h) of 1.62 µM.
`Nc1nc2cnc(C(=O)N3CCOC[C@@H]3c3ccc(S(F)(F)(F)(F)F)cc3)cc2c2c1COC2` (single isomer, unassigned) [Example 458] was tested, and the IC50 ([1]; HCT116-MTAP null, 144 h) was 0.018 µM and the IC50 ([2]; Homo sapiens, HCT-116, 144 h) was 0.454 µM.
`C[C@@H]1COC[C@H](c2ccc(C(F)(F)F)nc2)N1C(=O)c1cc2c3c(c(N)nc2cn1)COC3` [Example 524, (4-amino-1,3-dihydrofuro[3,4-c][1,7]naphthyridin-8-yl)((3R,5S)-3-methyl-5-(6-(trifluoromethyl)-3-pyridinyl)-4-morpholinyl)methanone] showed an IC50 ([1]; HCT116-MTAP null, 144 h) of 0.031 µM and an IC50 ([2]; Homo sapiens, HCT-116, 144 h) of 1.24 µM.
In the case of `CC1OCc2c1c(N)nc1cnc(C(=O)N3C(C)COCC3c3ccc(C(F)(F)F)cc3F)cc21` (mixture of isomers) [Example 332, ((3S)-4-amino-3-methyl-1,3-dihydrofuro[3,4-c][1,7]naphthyridin-8-yl)((3R,5S)-3-(2-fluoro-4-(trifluoromethyl)phenyl)-5-methyl-4-morpholinyl)methanone and ((3S)-4-amino-3-methyl-1,3-dihydrofuro[3,4-c][1,7]naphthyridin-8-yl)((3S,5R)-3-(2-fluoro-4-(trifluoromethyl)phenyl)-5-methyl-4-morpholinyl)methanone], the IC50 [1] is reported as 0.536 µM and the IC50 [2] is reported as 23.3 µM.
`CC1OCc2c1c(N)nc1cnc(C(=O)N3C(C)COCC3c3ccc(OC(F)F)nn3)cc21` (mixture of isomers) [Example 316, ((3R)-4-amino-3-methyl-1,3-dihydrofuro[3,4-c][1,7]naphthyridin-8-yl)((3R,5S)-3-(6-(difluoromethoxy)-3-pyridazinyl)-5-methyl-4-morpholinyl)methanone and ((3R)-4-amino-3-methyl-1,3-dihydrofuro[3,4-c][1,7]naphthyridin-8-yl)((3S,5R)-3-(6-(difluoromethoxy)-3-pyridazinyl)-5-methyl-4-morpholinyl)methanone] gave an IC50 [1] of 0.035 µM and an IC50 [2] of 1.13 µM.
Molecule `Nc1nc2cnc(C(=O)N3CCOC[C@@H]3c3ccc(OC(F)F)nc3)cc2c2c1COC2.Nc1nc2cnc(C(=O)N3CCOC[C@H]3c3ccc(OC(F)F)nc3)cc2c2c1COC2` [Example 394, (4-amino-1,3-dihydrofuro[3,4-c][1,7]naphthyridin-8-yl)((3R)-3-(6-(difluoromethoxy)-3-pyridinyl)-4-morpholinyl)methanone (4-amino-1,3-dihydrofuro[3,4-c][1,7]naphthyridin-8-yl)((3S)-3-(6-(difluoromethoxy)-3-pyridinyl)-4-morpholinyl)methanone] has an IC50 [1] of 0.624 µM and an IC50 [2] of 36.4 µM.
`Nc1nc2cc(F)c(C(=O)N3CCOCC3c3ccc(C(F)(F)F)cn3)cc2c2c1COC2` (racemic) [Example 351, (4-amino-7-fluoro-1,3-dihydrofuro[3,4-c]quinolin-8-yl)((3R)-3-(5-(trifluoromethyl)-2-pyridinyl)-4-morpholinyl)methanone and (4-amino-7-fluoro-1,3-dihydrofuro[3,4-c]quinolin-8-yl)((3S)-3-(5-(trifluoromethyl)-2-pyridinyl)-4-morpholinyl)methanone] showed an IC50 ([1]; HCT116-MTAP null, 144 h) of 0.129 µM and an IC50 ([2]; Homo sapiens, HCT-116, 144 h) of 6 µM.
In the case of `Nc1nc2cc(F)c(C(=O)N3CC[C@H](c4ccc(C(F)(F)F)cc4)C3)cc2c2c1COC2` (single isomer, unassigned) [Example 468], the IC50 ([1]; HCT116-MTAP null, 144 h) is reported as 0.417 µM and the IC50 ([2]; Homo sapiens, HCT-116, 144 h) is reported as 37.4 µM.
In the case of `C[C@H]1COC[C@@H](c2ccc(OC(F)(F)F)cn2)N1C(=O)c1ccc2nc(N)c3c(c2c1)COC3` (racemic) [Example 376, (4-amino-1,3-dihydrofuro[3,4-c]quinolin-8-yl)((3R,5S)-3-methyl-5-(5-(trifluoromethoxy)-2-pyridinyl)-4-morpholinyl)methanone and (4-amino-1,3-dihydrofuro[3,4-c]quinolin-8-yl)((3S,5R)-3-methyl-5-(5-(trifluoromethoxy)-2-pyridinyl)-4-morpholinyl)methanone], the IC50 ([1]; HCT116-MTAP null, 144 h) is reported as 0.029 µM and the IC50 ([2]; Homo sapiens, HCT-116, 144 h) is reported as 1.22 µM.
In the case of `C[C@H]1OCc2c1c(N)nc1ccc(C(=O)N3CC(c4ccc(Cl)cc4)CC3C3CC3)cc21` (stereo partly drawn) [Example 396, ((3R)-4-amino-3-methyl-1,3-dihydrofuro[3,4-c]quinolin-8-yl)(4-(4-chlorophenyl)-2-cyclopropylpyrrolidin-1-yl)methanone], the IC50 ([1]; HCT116-MTAP null, 144 h) is reported as 0.866 µM and the IC50 ([2]; Homo sapiens, HCT-116, 144 h) is reported as 13.3 µM.
With `Cc1ccc([C@@H]2COCCN2C(=O)c2ccc3nc(N)c4c(c3c2)COC4)cn1` (single isomer, unassigned) [Example 605] the IC50 ([1]; HCT116-MTAP null, 144 h) was > 1 µM and the IC50 ([2]; Homo sapiens, HCT-116, 144 h) was > 10 µM.
“(4-amino-7-chloro-1,3- dihydrofuro[3,4-c]quinolin-8- yl)((3R,4S)-3-ethyl-4-(4- methylphenyl)-1- pyrrolidinyl)methanone and (4-amino-7-chloro-1,3- dihydrofuro[3,4-c]quinolin-8- yl)((3S,4R)-3-ethyl-4-(4- methylphenyl)-1- pyrrolidinyl)methanone [Example 424]” was tested, and the IC50 [1] was 0.345 µM and the IC50 [2] was 5.69 µM.
Work on `Nc1nc2ccc(C(=O)N3CCOC[C@@H]3c3ccc(Cl)cc3)cc2c2c1COC2` (single isomer, unassigned) [Example 581] yielded an IC50 ([1]; HCT116-MTAP null, 144 h) of 0.183 µM and an IC50 ([2]; Homo sapiens, HCT-116, 144 h) of 6.57 µM.
`Nc1nc2cc(Cl)c(C(=O)N3CCOCC3c3ccc(F)c(OC(F)(F)F)c3)cc2c2c1COC2` (racemic) [Example 346, (4-amino-7-chloro-1,3-dihydrofuro[3,4-c]quinolin-8-yl)((3R)-3-(4-fluoro-3-(trifluoromethoxy)phenyl)-4-morpholinyl)methanone and (4-amino-7-chloro-1,3-dihydrofuro[3,4-c]quinolin-8-yl)((3S)-3-(4-fluoro-3-(trifluoromethoxy)phenyl)-4-morpholinyl)methanone] gave an IC50 ([1]; HCT116-MTAP null, 144 h) of 0.062 µM and an IC50 ([2]; Homo sapiens, HCT-116, 144 h) of 1.95 µM.
`Cn1ncc2c(N)nc3cc(F)c(C(=O)N4CC[C@@H](Oc5ccc(C(F)(F)F)cn5)C4)cc3c21` (single isomer, unassigned) [Example 474] gave an IC50 [1] of 0.842 µM and an IC50 ([2]; Homo sapiens, HCT-116, 144 h) of 6.42 µM.
Work on `C[C@@H]1COC[C@H](c2ccc(OCC(F)(F)F)nn2)N1C(=O)c1cc2c3c(c(N)nc2cn1)COC3` [Example 563, (4-amino-1,3-dihydrofuro[3,4-c][1,7]naphthyridin-8-yl)((3R,5S)-3-methyl-5-(6-(2,2,2-trifluoroethoxy)-3-pyridazinyl)-4-morpholinyl)methanone] yielded an IC50 ([1]; HCT116-MTAP null, 144 h) of 0.032 µM and an IC50 ([2]; Homo sapiens, HCT-116, 144 h) of 1.06 µM.
